Laboratory results as given in patent US8168650B2, “Therapeutic uses of bicyclic ligands of sigma 2 receptor” (priority 2006, dated 2012).

Test system: EMT-6 cells
Test: Colony formation assay on Doxorubicin-treated EMT-6 cells
Type: cell-based, mouse
Procedure: This Example illustrates colony formation assay on Doxorubicin (“Dox”)-treated EMT-6 cells in the presence or absence of 2 μM WC-II-26. The structures of the sigma ligands used in this and subsequent examples are illustrated in FIG. 5 and FIG. 6.

COc1ccc(C)cc1NC(=O)O[C@H]1C[C@H]2CCC[C@@H](C1)N2Cc1ccc(N(C)C)cc1 [WC-II-26]
number of colonies formed compared to control cells (EMT-6, 2 μM WC-II-26 alone): not changed significantly
ability of survival reduced (% of control) (EMT-6, 2 μM WC-II-26 combined with 10 nM Dox): 38 % of control
ability of survival reduced (% of control) (EMT-6, 2 μM WC-II-26 combined with 20 nM Dox): 77 % of control
ability of survival reduced (% of control) (EMT-6, 2 μM WC-II-26 combined with 30 nM Dox): 86 % of control
ability of survival reduced (% of control) (EMT-6, 2 μM WC-II-26 combined with 40 nM Dox): 92 % of control
